Legend:
[1] = test system: Rattus norvegicus; test: Anti-inflammatory activity in albino rat model of carrageenan-induced paw edema assessed as inhibition of carrageenan-induced paw edema at 100 mg/kg, po administered as single dose prior to carrageenan challenge measured after 4 hrs relative to control; type: functional
[2] = test system: Rattus norvegicus; test: Anti-inflammatory activity in albino rat model of carrageenan-induced paw edema assessed as inhibition of carrageenan-induced paw edema at 100 mg/kg, po administered as single dose prior to carrageenan challenge measured after 3 hrs relative to control; type: functional
[3] = test system: Rattus norvegicus; test: Anti-inflammatory activity in albino rat model of carrageenan-induced paw edema assessed as inhibition of carrageenan-induced paw edema at 100 mg/kg, po administered as single dose prior to carrageenan challenge measured after 1 hr relative to control; type: functional
[4] = organism: Homo sapiens; test: Selectivity index, ratio of IC50 for human recombinant COX1 to IC50 for human recombinant COX2 using arachidonic acid as substrate
[5] = biological target: T1, Prostaglandin G/H synthase 2 (Homo sapiens, UniProt P35354); test: Inhibition of human recombinant COX2 assessed as decrease in prostaglandin production using arachidonic acid as substrate pretreated for 15 mins followed by substrate addition and measured after 2 mins by enzyme immunoassay
T1 sequence (P35354 whole entry): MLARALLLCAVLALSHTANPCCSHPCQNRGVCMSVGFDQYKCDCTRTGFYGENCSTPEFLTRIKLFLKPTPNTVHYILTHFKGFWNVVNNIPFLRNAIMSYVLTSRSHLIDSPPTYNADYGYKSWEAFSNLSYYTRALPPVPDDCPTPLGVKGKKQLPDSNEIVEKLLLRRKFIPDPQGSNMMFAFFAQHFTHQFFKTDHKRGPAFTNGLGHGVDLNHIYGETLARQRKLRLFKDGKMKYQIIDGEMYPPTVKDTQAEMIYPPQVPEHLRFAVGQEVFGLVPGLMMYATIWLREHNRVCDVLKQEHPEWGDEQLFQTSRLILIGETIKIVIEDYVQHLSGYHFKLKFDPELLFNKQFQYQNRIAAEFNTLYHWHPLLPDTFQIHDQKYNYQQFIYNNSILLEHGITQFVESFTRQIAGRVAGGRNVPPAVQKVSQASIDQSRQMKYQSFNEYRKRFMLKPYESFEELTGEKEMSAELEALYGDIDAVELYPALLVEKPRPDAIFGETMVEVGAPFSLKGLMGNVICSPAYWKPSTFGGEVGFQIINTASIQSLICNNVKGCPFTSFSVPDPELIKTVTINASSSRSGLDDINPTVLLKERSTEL

[6] = test system: Rattus norvegicus; test: Anti-inflammatory activity in albino rat model of carrageenan-induced paw edema assessed as paw edema thickness at 100 mg/kg, po administered as single dose prior to carrageenan challenge measured after 12 hrs; type: functional
[7] = biological target: Prostaglandin G/H synthase 1 (Homo sapiens, UniProt P23219); test: Inhibition of human recombinant COX1 assessed as decrease in prostaglandin production using arachidonic acid as substrate pretreated for 15 mins followed by substrate addition and measured after 2 mins by enzyme immunoassay; type: single protein
[8] = test system: Rattus norvegicus; test: Anti-inflammatory activity in albino rat model of carrageenan-induced paw edema assessed as paw edema thickness at 100 mg/kg, po administered as single dose prior to carrageenan challenge measured after 8 hrs; type: functional
[9] = test system: Rattus norvegicus; test: Anti-inflammatory activity in albino rat model of carrageenan-induced paw edema assessed as inhibition of carrageenan-induced paw edema at 100 mg/kg, po administered as single dose prior to carrageenan challenge measured after 8 hrs relative to control; type: functional

Prostaglandin G/H synthase 1, sequence (P23219 whole entry): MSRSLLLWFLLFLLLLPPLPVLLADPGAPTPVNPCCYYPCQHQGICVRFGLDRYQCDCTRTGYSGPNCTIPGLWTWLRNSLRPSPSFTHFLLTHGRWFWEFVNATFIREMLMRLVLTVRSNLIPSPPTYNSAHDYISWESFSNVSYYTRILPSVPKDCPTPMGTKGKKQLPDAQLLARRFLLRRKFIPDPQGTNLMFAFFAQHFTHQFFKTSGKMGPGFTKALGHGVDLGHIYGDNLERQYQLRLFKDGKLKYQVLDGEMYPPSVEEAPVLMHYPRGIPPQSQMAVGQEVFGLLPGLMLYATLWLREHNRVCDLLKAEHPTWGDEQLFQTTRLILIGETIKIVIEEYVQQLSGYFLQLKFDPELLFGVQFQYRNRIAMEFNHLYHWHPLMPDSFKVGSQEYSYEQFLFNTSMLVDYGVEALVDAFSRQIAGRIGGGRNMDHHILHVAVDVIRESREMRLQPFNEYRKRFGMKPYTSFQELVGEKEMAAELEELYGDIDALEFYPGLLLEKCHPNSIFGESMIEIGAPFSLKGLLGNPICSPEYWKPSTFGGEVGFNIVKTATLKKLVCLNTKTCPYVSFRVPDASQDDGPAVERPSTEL

Row | SMILES | inhibition in vivo at 100 mg/kg [1] [%] | inhibition in vivo at 100 mg/kg [2] [%] | inhibition in vivo at 100 mg/kg [3] [%] | Ratio IC50 [4] | IC50 [5] [µM] | Activity [6] [mm] | IC50 [7] [µM] | Activity [8] [mm] | inhibition in vivo at 100 mg/kg [9] [%]
1 | CC(=O)n1nc(-c2ccc(Cl)cc2)cc1-c1cn(-c2ccccc2)nc1-c1ccc(OCc2ccccc2)cc1 | 25.8 | 49.7 | 69.8 | 0.975 | 2.79 | 1.82 | 2.72 | 2.17 | 
2 | Nc1nc(-c2ccc(Cl)cc2)cc(-c2cn(-c3ccccc3)nc2-c2ccc(OCc3ccccc3)cc2)n1 | 20.4 | 30.4 | 50.8 | 0.15 | 3.99 | 1.8 | 0.6 | 2.17 | 
3 | N#CC1=C(N)OC(c2ccc(Cl)cc2)=CC1c1cn(-c2ccccc2)nc1-c1ccc(OCc2ccccc2)cc1 (stereo unspecified) | 18.2 | 38.2 | 28.8 | 0.831 | 11.6 | 1.85 | 9.68 | 2.31 | 
4 | NC(=S)n1nc(-c2ccccc2)cc1-c1cn(-c2ccccc2)nc1-c1ccc(OCc2ccccc2)cc1 | 2.15 | 7.29 | 3.97 | 1 | 5.2 | 1.8 | 5.2 | 2.2 | 
5 | S=c1nc(-c2ccccc2)cc(-c2cn(-c3ccccc3)nc2-c2ccc(OCc3ccccc3)cc2)[nH]1 | 14.6 | 33.8 | 48.5 | 0.31 | 1 | 1.88 | 0.31 | 2.19 | 
6 | NC(=S)n1nc(-c2ccc(Cl)cc2)cc1-c1cn(-c2ccccc2)nc1-c1ccc(OCc2ccccc2)cc1 | 24.5 | 24.6 | 47.5 | 1.31 | 4.69 | 1.89 | 6.07 |  | 5.9
7 | c1ccc(COc2ccc(-c3nn(-c4ccccc4)cc3-c3cc(-c4ccccc4)no3)cc2)cc1 | 28.4 | 42.5 | 73.8 | 4.54 | 2.11 | 1.83 | 9.57 |  | 6.9
